According to patent publication US11608318B2, “Solid state forms of Omecamtiv mecarbil and Omecamtiv mecarbil diHCl” (ASSIA CHEMICAL INDUSTRIES LTD., priority 2018, dated 2023):

Source text: (§1) Pharmaceutical molecules may display solid to solid phase transformations and transformations between polymorphs; which may detected by exposure of the solid state form to stress conditions of e.g., high temperature and high relative humidity.
as §1

Substance: Malonic Omecamtiv mecarbil diHCl [form OCM-3]
- thermodynamic and mechanical stability of the solid state form (polymorphic conversion): thermodynamically and mechanically stable
